ChEMBL document CHEMBL1128010, “Novel HO-DPAT (hydroxy-2-dipropylaminotetralin) isomers: Stereoselective synthesis and receptor binding studies” (Bioorg Med Chem Lett, 1994)

Tests used:
Type in all cases: cell membranes, Striatum, Membrane
[1] = target: T1, D(2) dopamine receptor (Rattus norvegicus, UniProt P61169); test: Compound was evaluated for its affinity to Dopamine receptor D2 labelled with [3H]spiroperidol in rat striatal membranes
[2] = target: T1, D(2) dopamine receptor; test: Compound was evaluated for its affinity to Dopamine receptor D2 labelled with [3H]pramipexole in rat striatal membranes
[3] = target: D(1A) dopamine receptor (Rattus norvegicus, UniProt P18901); test: Compound was evaluated for its affinity to Dopamine receptor D1 labelled with [3H]-SCH- 23390 in rat striatal membranes
D(1A) dopamine receptor, sequence (P18901 whole entry): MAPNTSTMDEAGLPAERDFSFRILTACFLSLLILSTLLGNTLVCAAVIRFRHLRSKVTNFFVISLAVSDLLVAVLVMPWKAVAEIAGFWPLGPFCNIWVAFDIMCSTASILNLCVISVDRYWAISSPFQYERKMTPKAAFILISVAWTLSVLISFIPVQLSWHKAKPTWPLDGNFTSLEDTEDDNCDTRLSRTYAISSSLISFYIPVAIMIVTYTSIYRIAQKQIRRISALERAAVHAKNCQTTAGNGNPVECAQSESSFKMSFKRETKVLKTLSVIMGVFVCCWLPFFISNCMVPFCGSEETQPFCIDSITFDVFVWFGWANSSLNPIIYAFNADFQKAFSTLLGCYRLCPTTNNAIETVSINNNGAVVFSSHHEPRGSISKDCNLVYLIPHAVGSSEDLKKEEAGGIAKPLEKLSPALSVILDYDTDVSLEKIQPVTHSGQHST

T1 sequence (P61169 whole entry): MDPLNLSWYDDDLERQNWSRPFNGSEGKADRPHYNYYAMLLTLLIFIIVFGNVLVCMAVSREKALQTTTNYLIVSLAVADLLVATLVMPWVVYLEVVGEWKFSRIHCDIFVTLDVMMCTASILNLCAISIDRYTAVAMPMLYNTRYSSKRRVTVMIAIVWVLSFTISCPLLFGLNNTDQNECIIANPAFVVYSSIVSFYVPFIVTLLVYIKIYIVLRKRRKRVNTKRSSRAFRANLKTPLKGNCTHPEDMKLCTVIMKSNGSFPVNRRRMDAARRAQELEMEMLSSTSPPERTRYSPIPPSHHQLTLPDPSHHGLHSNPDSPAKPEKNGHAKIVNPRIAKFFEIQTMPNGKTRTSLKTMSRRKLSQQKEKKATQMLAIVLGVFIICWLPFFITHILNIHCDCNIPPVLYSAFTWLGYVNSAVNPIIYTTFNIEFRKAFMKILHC

| Structure (SMILES) | Ki [1] [µM] | Ki [2] [µM] | Ki [3] [µM] |
| --- | --- | --- | --- |
| CCCN(CCC)C1Cc2ccccc2[C@@H](O)C1 (stereo partly specified) | 13 | 0.262 | > 50 |
| CCCN(CCC)C1Cc2ccccc2[C@H](O)C1 (stereo partly specified) | 13.9 | 0.0357 | > 50 |
